Assay results: ChEMBL document CHEMBL2057072, “Design, synthesis, and pharmacological evaluation of novel tetrahydroprotoberberine derivatives: selective inhibitors of dopamine D₁ receptor” (Bioorg Med Chem, 2012)

Key:
[1] = target: 5-hydroxytryptamine receptor 2A (Homo sapiens) (UniProt P28223); test: Displacement of [3H]Ketanserin from human 5HT2A receptor expressed in HEK293 cells at 10 uM; type: cell-based
D(1A) dopamine receptor [2] = target: T1, D(1A) dopamine receptor (Homo sapiens, UniProt P21728); test: Displacement of [3H]SCH23390 from human dopamine D1 receptor expressed in HEK293 cells; type: cell-based
D(2) dopamine receptor [3] = target: T2, D(2) dopamine receptor (Homo sapiens, UniProt P14416); test: Displacement of [3H]Spiprone from human dopamine D2 receptor expressed in HEK293 cells; type: cell-based
[4] = target: T3, 5-hydroxytryptamine receptor 1A (Homo sapiens) (UniProt P08908); test: Displacement of [3H]-8-OH-DPAT from human 5HT1A receptor expressed in HEK293 cells at 10 uM; type: cell-based
T3 sequence (whole entry): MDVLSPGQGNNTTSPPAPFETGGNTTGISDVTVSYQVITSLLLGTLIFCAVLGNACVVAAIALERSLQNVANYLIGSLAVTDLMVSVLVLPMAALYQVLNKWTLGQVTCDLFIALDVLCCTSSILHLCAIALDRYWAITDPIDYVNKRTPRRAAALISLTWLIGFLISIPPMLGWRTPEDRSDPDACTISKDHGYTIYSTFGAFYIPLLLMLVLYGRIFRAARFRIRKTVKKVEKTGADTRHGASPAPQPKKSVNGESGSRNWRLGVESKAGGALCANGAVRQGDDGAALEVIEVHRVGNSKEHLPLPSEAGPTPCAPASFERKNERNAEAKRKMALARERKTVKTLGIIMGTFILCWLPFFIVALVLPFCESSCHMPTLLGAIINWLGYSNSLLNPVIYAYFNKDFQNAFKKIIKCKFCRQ

D(1A) dopamine receptor [5] = target: T1, D(1A) dopamine receptor; test: Antagonist activity at dopamine D1 receptor assessed as inhibition of [35S]GTPgammaS binding in cell-based assay; type: functional
D(1A) dopamine receptor [6] = target: T1, D(1A) dopamine receptor; test: Antagonist activity at dopamine D1 receptor assessed as inhibition of [35S]GTPgammaS binding in cell-based assay relative to control; type: functional
D(2) dopamine receptor [7] = target: T2, D(2) dopamine receptor; test: Displacement of [3H]Spiprone from human dopamine D2 receptor expressed in HEK293 cells at 10 uM; type: cell-based
D(1A) dopamine receptor [8] = target: T1, D(1A) dopamine receptor; test: Displacement of [3H]SCH23390 from human dopamine D1 receptor expressed in HEK293 cells at 10 uM; type: cell-based
[9] = target: T4, 5-hydroxytryptamine receptor 1A (Homo sapiens, UniProt P08908); test: Displacement of [3H]-8-OH-DPAT from human 5HT1A receptor expressed in HEK293 cells; type: cell-based
T4 sequence (P08908 whole entry): T3 sequence (whole entry)

D(1A) dopamine receptor [10] = target: T1, D(1A) dopamine receptor; test: Agonist activity at dopamine D1 receptor assessed as [35S]GTPgammaS binding in cell-based assay relative to control; type: functional
D(1A) dopamine receptor [11] = target: D(1A) dopamine receptor (Rattus norvegicus, UniProt P18901); test: Agonist activity at D1 receptor in rat striatum assessed as synaptosomal adenylate cyclase activity; type: functional, tissue-based
D(1A) dopamine receptor (Rattus norvegicus, UniProt P18901), sequence (P18901 whole entry): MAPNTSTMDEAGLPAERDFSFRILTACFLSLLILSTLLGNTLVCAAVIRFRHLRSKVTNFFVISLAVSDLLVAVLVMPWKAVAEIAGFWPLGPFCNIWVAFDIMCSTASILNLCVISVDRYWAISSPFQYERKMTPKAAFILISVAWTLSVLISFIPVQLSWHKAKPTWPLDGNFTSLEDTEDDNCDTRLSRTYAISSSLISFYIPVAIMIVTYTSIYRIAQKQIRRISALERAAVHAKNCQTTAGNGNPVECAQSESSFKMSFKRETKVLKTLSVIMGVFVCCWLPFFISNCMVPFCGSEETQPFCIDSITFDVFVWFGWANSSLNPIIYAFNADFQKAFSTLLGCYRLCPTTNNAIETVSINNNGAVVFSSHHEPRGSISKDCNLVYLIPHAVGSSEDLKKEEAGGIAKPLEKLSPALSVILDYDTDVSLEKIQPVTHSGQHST

T2 sequence (P14416 whole entry): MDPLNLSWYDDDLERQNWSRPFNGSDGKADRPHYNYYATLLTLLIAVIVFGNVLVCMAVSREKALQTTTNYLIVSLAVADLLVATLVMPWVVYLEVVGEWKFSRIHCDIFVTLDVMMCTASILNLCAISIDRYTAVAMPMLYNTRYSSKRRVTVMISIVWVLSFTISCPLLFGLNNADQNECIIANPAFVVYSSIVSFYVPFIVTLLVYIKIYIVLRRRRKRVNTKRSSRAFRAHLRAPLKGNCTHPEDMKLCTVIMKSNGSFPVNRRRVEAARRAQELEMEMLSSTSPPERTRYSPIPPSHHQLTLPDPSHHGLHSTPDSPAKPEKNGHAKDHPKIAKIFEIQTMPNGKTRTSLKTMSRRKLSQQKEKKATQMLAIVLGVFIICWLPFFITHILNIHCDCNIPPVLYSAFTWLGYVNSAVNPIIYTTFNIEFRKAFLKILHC
5-hydroxytryptamine receptor 2A (Homo sapiens), sequence (P28223 whole entry): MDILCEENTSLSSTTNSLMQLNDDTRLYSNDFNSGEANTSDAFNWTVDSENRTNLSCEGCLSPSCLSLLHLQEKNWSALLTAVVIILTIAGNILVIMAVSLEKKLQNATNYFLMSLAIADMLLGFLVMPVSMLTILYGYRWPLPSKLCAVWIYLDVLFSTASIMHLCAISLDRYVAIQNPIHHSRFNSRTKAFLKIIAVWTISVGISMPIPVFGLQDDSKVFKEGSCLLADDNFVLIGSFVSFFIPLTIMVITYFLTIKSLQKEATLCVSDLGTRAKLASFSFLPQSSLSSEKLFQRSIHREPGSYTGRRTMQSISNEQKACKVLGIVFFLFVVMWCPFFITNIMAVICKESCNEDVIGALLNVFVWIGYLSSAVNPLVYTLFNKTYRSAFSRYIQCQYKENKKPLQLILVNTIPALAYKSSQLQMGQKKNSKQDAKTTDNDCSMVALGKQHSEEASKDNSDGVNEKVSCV
T1 sequence (P21728 whole entry): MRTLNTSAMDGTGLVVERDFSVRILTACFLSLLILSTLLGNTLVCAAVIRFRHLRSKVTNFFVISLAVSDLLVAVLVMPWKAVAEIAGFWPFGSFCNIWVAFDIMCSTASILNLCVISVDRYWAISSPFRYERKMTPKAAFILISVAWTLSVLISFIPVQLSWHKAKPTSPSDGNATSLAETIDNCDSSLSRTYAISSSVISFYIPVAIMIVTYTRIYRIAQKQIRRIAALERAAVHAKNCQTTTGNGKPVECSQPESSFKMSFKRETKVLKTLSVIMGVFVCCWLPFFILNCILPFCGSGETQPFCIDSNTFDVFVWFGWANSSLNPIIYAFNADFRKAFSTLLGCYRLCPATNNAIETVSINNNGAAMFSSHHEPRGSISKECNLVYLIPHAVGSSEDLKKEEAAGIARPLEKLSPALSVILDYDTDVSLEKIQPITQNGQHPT

Row | Structure (SMILES) | inhibition [1] [%] | IC50 (D(1A) dopamine receptor [2]) [nM] | Ki (D(1A) dopamine receptor [2]) [nM] | IC50 (D(2) dopamine receptor [3]) [nM] | Ki (D(2) dopamine receptor [3]) [nM] | inhibition [4] [%] | IC50 (D(1A) dopamine receptor [5]) [nM] | Imax (D(1A) dopamine receptor [6]) [%] | inhibition (D(2) dopamine receptor [7]) [%] | inhibition (D(1A) dopamine receptor [8]) [%] | Ki [9] [nM] | Emax (D(1A) dopamine receptor [10]) [%] | EC50 (D(1A) dopamine receptor [11]) [nM]
1 | COc1cc2c(cc1O)[C@@H]1Cc3c(CO)c(OC)cc(OC)c3CN1CC2 | 18.4 | 30.7 | 17.3 | 514 | 147 | 80.9 |  |  |  |  |  |  | 
2 | COc1cc2c(c(OC)c1)CN1CCc3cc(OC)c(OC)c(OC)c3[C@@H]1C2 | 48.8 | 45.4 | 23.8 |  |  | 66.9 | 11800 | 82.5 | 51.7 |  |  |  | 
3 | COc1ccc2c(c1)C[C@H]1c3cc(O)c(OC)cc3CCN1C2 | 68.7 | 68.9 | 35.8 | 873 | 347 | 65.6 |  |  |  |  |  |  | 
4 | COc1cc2c(c(OC)c1)CN1CCc3cc(OC)c(O)cc3[C@@H]1C2 | 32.4 | 4.86 |  |  |  | 56.9 | 1380 | 94.3 | 83.3 |  |  |  | 
5 | COc1cc2c(c(OC)c1)CN1CCc3cc(OC)c(OCc4ccccc4)c(OC)c3[C@@H]1C2 | 69.1 |  |  |  |  | 43.7 |  |  | 54.2 | 59.3 |  |  | 
6 | COc1ccc2c(c1)C[C@H]1c3cc(OCc4ccccc4)c(OC)cc3CCN1C2 | 13.5 |  |  |  |  | 37.3 |  |  | 36 | 86 |  |  | 
7 | COc1ccc2c(c1)C[C@H]1c3c(OC)cc(OC)c(CO)c3CCN1C2 | 21.4 |  |  |  |  | 1.34 |  |  |  | 56 |  |  | 
8 | COc1cc2c(cc1O)[C@@H]1Cc3cc(C)cc(C)c3CN1CC2 | 27.1 | 56.4 | 28.9 | 456 | 161 | 74.5 |  |  |  |  |  |  | 
9 | COc1ccc(OC)c2c1C[C@H]1c3c(OC)cc(OC)c(CO)c3CCN1C2 | 25.3 |  |  |  |  | 33.1 |  |  |  | 48.8 |  |  | 
10 | COc1cc(OC)c2c(c1CO)C[C@H]1c3cc4c(cc3CCN1C2)OCO4 | 56.2 | 324 | 182 |  |  |  |  |  | 41.8 |  | 600 |  | 
11 | CN1CCc2cc(Cl)c(O)cc2[C@@H](c2ccccc2)C1 |  |  |  |  |  |  |  | 80 |  |  |  |  | 
12 | COc1cc2c(c(OC)c1)CN1CCc3cc(OC)cc(OC)c3[C@@H]1C2 | 25 | 14.3 | 7.97 |  |  | 61.7 | 23300 | 94.2 | 81.9 |  |  |  | 
13 | COc1cc2c(cc1OC)C1Cc3cc(C)cc(C)c3CN1CC2 (racemic) | 19.9 | 2920 | 1440 |  |  | 28.4 |  |  | 77.4 |  |  |  | 
14 | COc1cc(OC)c2c(c1CO)CCN1Cc3cc4c(cc3C[C@@H]21)OCO4 | 16.9 |  |  |  |  |  |  |  |  | 17.4 |  |  | 
15 | Oc1cc2c(cc1O)C(c1ccccc1)CNCC2 (stereo not given) |  |  |  |  |  |  |  |  |  |  |  | 100 | 
16 | COc1cc2c(cc1O)[C@@H]1Cc3ccc(O)c(OC)c3CN1CC2 [STEPHOLIDINE] | 45.6 | 12.3 | 6.23 | 105 | 56.2 | 89.3 |  |  |  |  |  |  | 41100
17 | COc1cc2c(cc1OC)[C@@H]1Cc3cc(C)cc(C)c3CN1CC2 | 36.5 | 684 | 338 | 1160 | 224 | 54.8 |  |  |  |  |  |  | 
18 | COc1cc(OC)c2c(c1CO)C[C@H]1c3c(cc(OC)c(OC)c3OC)CCN1C2 | 59.7 |  |  |  |  | 67.4 |  |  | 47.2 | 7.37 |  |  | 
19 | COc1cc2c(c(OC)c1)CN1CCc3cc(OC)c(OC)cc3[C@@H]1C2 | 17.2 | 189 | 106 |  |  | 66.9 |  |  | 3.48 |  |  |  | 
20 | COc1ccc2c(c1)C[C@H]1c3cc(OC)c(OC)cc3CCN1C2 | 33.5 |  |  |  |  | 57.4 |  |  | 10.2 | 81.9 |  |  | 
21 | COc1ccc2c(c1)C[C@H]1c3cc4c(cc3CCN1C2)OCO4 | 20.8 |  |  |  |  | 5.48 |  |  | 22.7 | 83.2 |  |  | 
22 | COc1cc2c(cc1OC)[C@@H]1Cc3c(CO)c(OC)cc(OC)c3CN1CC2 | 24.1 | 114 | 64.1 |  |  |  |  |  | 39.5 |  | 730 |  | 
23 | COc1cc2c(c(OC)c1)CN1CCc3cc(OC)c(O)c(OC)c3[C@@H]1C2 | 51.6 | 98.1 | 52.3 |  |  | 44.9 |  |  | 58.8 |  |  |  | 
24 | COc1cc2c(c(OC)c1)CN1CCc3cc4c(cc3[C@@H]1C2)OCO4 | 31.3 | 142 | 74.5 |  |  | 57.6 |  |  | 1.02 |  |  |  | 
25 | COc1cc2c(c(OC)c1OC)[C@@H]1Cc3cc4c(cc3CN1CC2)OCO4 | 72.7 |  |  |  |  | 70.3 |  |  | 70.7 | 43.4 |  |  | 
